The source of these data is patent US20240240224A1, “FLUORESCENT D-TYPE AMINO ACID METABOLISM MARKER-BASED METHOD FOR DETECTING ANTIBACTERIAL DRUG SENSITIVITY TEST” (priority 2020, published 2024).

The test system of assay [1] is S. aureus Sa23. Put plainly: BMD susceptibility test. To be noted: unit assumed. In kind it is cell-based, Staphylococcus aureus.
The test system of assay [2] is S. aureus Sa22. Put plainly: FaAST (FDAA metabolic labeling method). Type of assay: cell-based, Staphylococcus aureus. To be noted: unit assumed. The method, then:
(§1) Take the colony to be tested that has been cultured overnight on the plate and fully mix it in normal saline to make a uniform bacterial solution. Dilute it into Cation-Adjusted Mueller Hinton Broth (CAMHB) culture medium to make a bacterial solution with OD600=0.05. • 2. Add 45 μl antibiotic solutions of different concentrations to 96-well plates (see Table 1 for antibiotic concentration gradient settings). • 3. Add 50 μl of the bacterial solution prepared in step 1 to the 96-well plate and mix well. • 4. Add 5 μl of 10 mM Cy5-DAA probe (final concentration 0.15 mM, see FIG. 1 for its structure) into each well, mix well, and cultivate in dark for 2 hours. • 5. Add 200 μl After PBS solution is diluted, the fluorescence intensity of each sample is detected by flow cytometry. The flow detection results are shown in FIG. 4-5, showing the curve of the change of antibiotic concentration gradient and fluorescence intensity. The MIC (minimum inhibitory concentration) can be obtained by referring to this curve.
(§2) Bacteria with antibiotic resistance are shown in bold in the following table.

For assay [3], the system named is S. aureus Sa23. Description: FaAST (FDAA metabolic labeling method). In kind it is cell-based, Staphylococcus aureus. To be noted: unit assumed. On the procedure:
as §1, §2

Assay [4] has as its system S. aureus ATCC29213. Put plainly: FaAST (FDAA metabolic labeling method). In kind it is cell-based, Staphylococcus aureus. As to conditions: unit assumed. On the procedure: as §1, §2
In assay [5] the test system is S. aureus ST398. Put plainly: Vitek 2 drug sensitivity test. Type of assay: cell-based, Staphylococcus aureus.
For assay [6], the system named is E. faecalis ATCC29212. Description: FaAST (FDAA metabolic labeling method). In kind it is cell-based, Enterococcus faecalis. As to conditions: unit assumed. The method, then: as §1, §2
Assay [7] concerns E. faecium Ef28. Description: FaAST (FDAA metabolic labeling method). In kind it is cell-based, Enterococcus faecium. To be noted: unit assumed. On the procedure: as §1, with “The flow detection results are shown in FIG. 4-5, showing the curve of the change of antibiotic concentration gradient and fluorescence intensity.” left out
The test system of assay [8] is E. faecalis ATCC29212. Description: BMD susceptibility test. Type of assay: cell-based, Enterococcus faecalis. To be noted: unit assumed.
Assay [9] deals with S. aureus ST59. Put plainly: FDAA metabolic labeling susceptibility test (Cy5-DAA probe, flow cytometry). Type of assay: cell-based. As to conditions: Staphylococcus aureus, ST59, 2 h, read-out: MIC, FDAA. On the procedure: as §1
A general note: A flow cytometer gives signals particle by particle.

Assay [10] deals with S. aureus ST398. The assay is described as above. In kind it is cell-based. To be noted: Staphylococcus aureus, ST398, 2 h, read-out: MIC, FDAA. On the procedure:
as §1

Assay [11] deals with S. aureus ST5. The description is as above. In kind it is cell-based. To be noted: Staphylococcus aureus, ST5, 2 h, read-out: MIC, FDAA. The method, then:
as §1

Assay [12] has as its system E. faecalis ATCC29212. As to conditions: cited from earlier work.
Assay [13] has as its system S. aureus ATCC29213. To be noted: cited from earlier work.
The subject of assay [14] is S. aureus ST59. Description: Vitek 2 drug sensitivity test. Type of assay: cell-based, Staphylococcus aureus.
For assay [15], the system named is E. faecium Ef26. Put plainly: BMD susceptibility test. As to conditions: unit assumed. Type of assay: cell-based, Enterococcus faecium.
Assay [16] has as its system S. aureus Sa22. Put plainly: BMD susceptibility test. Type of assay: cell-based, Staphylococcus aureus. As to conditions: unit assumed.
Assay [17] deals with S. aureus ATCC29213. Put plainly: BMD susceptibility test. In kind it is cell-based, Staphylococcus aureus. To be noted: unit assumed.
The subject of assay [18] is S. aureus ST5. Description: Vitek 2 drug sensitivity test. Type of assay: cell-based, Staphylococcus aureus.
In assay [19] the test system is E. faecium Ef26. Put plainly: FaAST (FDAA metabolic labeling method). In kind it is cell-based, Enterococcus faecium. To be noted: unit assumed. The method, then: as §1, §2
In assay [20] the test system is E. faecium Ef28. Put plainly: BMD susceptibility test. To be noted: unit assumed. Type of assay: cell-based, Enterococcus faecium.

In brackets after ≈: the same amount, converted by molar mass.
Wherever Sensibility is given: key: S: Drug sensitive; R: Drug resistance.

By MIC is commonly meant the lowest concentration that inhibits growth of the organism. For `CN[C@H](CC(C)C)C(=O)N[C@H]1C(=O)N[C@@H](CC(N)=O)C(=O)N[C@H]2C(=O)N[C@H]3C(=O)N[C@H](C(=O)N[C@H](C(=O)O)c4cc(O)cc(O)c4-c4cc3ccc4O)[C@H](O)c3ccc(c(Cl)c3)Oc3cc2cc(c3O[C@@H]2O[C@H](CO)[C@@H](O)[C@H](O)[C@H]2O[C@H]2C[C@](C)(N)[C@H](O)[C@H](C)O2)Oc2ccc(cc2Cl)[C@H]1O` [Vancomycin, vancomycin], the BMD (MIC) in the assay with S. aureus Sa23 [1] was 1 µg/mL; with E. faecalis ATCC29212 [8], 2 µg/mL; in the assay on E. faecium Ef26 [15] it was 0.5 µg/mL; with S. aureus Sa22 [16] it was 1 µg/mL; in the assay on S. aureus ATCC29213 [17], 1 µg/mL. Moreover, the FaAST (MIC) in the assay on S. aureus Sa22 [2] amounted to 2 µg/mL; in the assay with S. aureus Sa23 [3], 2 µg/mL; in the assay with S. aureus ATCC29213 [4], 1 µg/mL; in the assay with E. faecalis ATCC29212 [6], 2 µg/mL; in the assay with E. faecium Ef28 [7], 32 µg/mL; in the assay with E. faecium Ef26 [19] it was 0.25 µg/mL. In addition, the Sensibility result with S. aureus ST398 [5], with S. aureus ST59 [14] and in the assay on S. aureus ST5 [18] was “S” throughout. Further, the MIC is ≤ 0.5 µg/mL against S. aureus ST398 [5] (Staphylococcus aureus); 2 µg/mL (≈ 1.38 µM) in the assay with S. aureus ST59 [9]; 2 µg/mL (≈ 1.38 µM) with S. aureus ST398 [10]; 4 µg/mL (≈ 2.76 µM) with S. aureus ST5 [11]; 1 µg/mL (≈ 0.69 µM) against S. aureus ST59 [14] (Staphylococcus aureus); 1 µg/mL (≈ 0.69 µM) with S. aureus ST5 [18] (Staphylococcus aureus). For the same molecule, the results for the “CLSI QC range” value in the assay on E. faecalis ATCC29212 [12] and with S. aureus ATCC29213 [13] were 1-4 and 0.5-2, respectively.
Turning to teicoplanin, the BMD (MIC) was 0.5 µg/mL in the assay with S. aureus Sa23 [1]; 16 µg/mL in the assay on E. faecium Ef28 [20]; ≤ 0.25 µg/mL in the assay with E. faecalis ATCC29212 [8]; 0.5 µg/mL in the assay on E. faecium Ef26 [15]; 0.5 µg/mL with S. aureus Sa22 [16]; ≤ 0.25 µg/mL in the assay with S. aureus ATCC29213 [17]. Moreover, the FaAST (MIC) was 1 µg/mL in the assay on S. aureus Sa22 [2]; 1 µg/mL in the assay with S. aureus Sa23 [3]; 0.25 µg/mL in the assay with S. aureus ATCC29213 [4]; 0.5 µg/mL with E. faecalis ATCC29212 [6]; 32 µg/mL with E. faecium Ef28 [7]; 0.25 µg/mL in the assay on E. faecium Ef26 [19]. Besides, the “CLSI QC range” value with E. faecalis ATCC29212 [12] is reported as 0.25-1; with S. aureus ATCC29213 [13], 0.25-1^.
